Data as given in patent US9029414B2, “Triterpenoid compounds and methods of use thereof” (Biotechnology Research Corporation, priority 2008, dated 2015).

Legend:
cortical neurons = assay: Cortical neuron survival assay against NMDA excitotoxicity (LDH); format: cell-based, Sprague-Dawley rats; conditions: 30 μM 24 hrs, NMDA 10-200 μM 20 min; at high concentrations of NMDA
Experimental: FIG. 12. Derivatives of DA001 rescue the cortical neurons from NMDA excitotoxicity. Cortical neurons were treated with compounds derived from of DA001 (30 μM) 24 hours prior to NMDA treatment. LDH released into the medium were measured 24 hours after NMDA treatment. Data are expressed as mean±s.e.m. and compared to solvent control (DMSO). *=P<0.05.
Hippocampal neurons/cortical neurons were prepared from embryonic day 18 Sprague-Dawley rats. […] Afterwards, cells were incubated in growth medium for 18-24 hours and detected with Cytotoxicity Detection Kit (1644793, Roche).
Cortical neurons were treated with DA021 or DA034 and subsequently subjected to varying concentrations of NMDA. […] LDH release into the medium was then measured.
Compounds with strong protective effect (>80% survival) against NMDA excitotoxicity are prototype DA001, derivatives DA010, DA021, DA034, DA040, DA081 and DA088. […] LDH released into the medium were measured 24 hours after NMDA treatment. Data are expressed as averaged percentage of cell survival (±s.e.m) calculated against solvent control (DMSO) and compared to no NMDA control (set as 100% survival). […]

[1] = system: LPS-induced TNF-α in serum; assay: Murine model of lipopolysaccharide-induced cytokine production; format: in vivo, Swiss-Webster mice
Experimental: This is a contract research performed by Washington Biotechnology Inc., Columbia, Md., protocol 1077. Swiss-Webster mice (female, Harlan Sprague-Dawley, 5-6 weeks) were weighed and dosed orally with 10 ml/kg water, prednisolone at 10 mg/kg, or DA021 at 30 mg/kg or 100 mg/kg. Thirty minutes after oral dosing, lipopolysaccharides (LPS) at 2 mL/kg was injected. Two hours after LPS injection, the mice were anesthetized and exsanguinated into serum separator micro-container tubes. The blood was processed to serum. The serum samples were assayed for tumor necrosis factor-α (TNFα) concentration by ELISA (Pierce) according to the manufacturer's protocol.
Evaluation of the efficacy and potency of orally administered DA021 to inhibit the lipopolysaccharide (LPS)-induced release of tumor necrosis factor-α (TNF-α) in mice was carried out. LPS is a widely used endotoxin, isolated from the bacteria, E. coli in inducing acute inflammation in an organism. Prednisolone is a synthetic corticosteroid drug that is commonly used in inflammatory reactions. It is a broad range immunosuppressant. Based on FIG. 29, there was a marked increase in the amount of TNF-α in serum upon LPS treatment in mice.
Two hours after LPS injection, the serum was collected from the mice. The serum samples were assayed for tumor necrosis factor-α (TNFα) concentration by ELISA (Pierce) according to the manufacturer's protocol. N=10, significance was calculated versus LPS+vehicle using the Student's T-test, *=p≦0.05, #=p≦1×10^−4.

SMILES | cell death (LDH release) vs DMSO control (cortical neurons) | inhibition of the LPS response (serum TNF-α) ([1]; 30 mg/kg orally 30 min before LPS) | inhibition of the LPS response (serum TNF-α) ([1]; 100 mg/kg orally 30 min before LPS)
CC(=O)OC[C@]12CC[C@@H](C3(C)CO3)C1C1CCC3[C@@]4(C)CC[C@H](O)[C@@](C)(CO)[C@@H]4CC[C@@]3(C)[C@]1(C)CC2 (stereo partly shown) [DA034] | significant reduction in cell death | – | –
C=C(C)[C@@H]1CC[C@]2(/C=N/O)CC[C@]3(C)C(CCC4[C@@]5(C)CCC(=O)[C@@](C)(CO)[C@@H]5CC[C@]43C)C12 (stereo partly shown) [DA021] | significant reduction in cell death | 73% | 77%
